Measurements published in PubChem BioAssay (NCI).
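1) Cells in 96-well plates. 2) Compound, 48 h, 5 concentrations. 3) Linear interpolation between surrounding doses. 4) Unreached endpoint = highest concentration. The concentration for 50% growth inhibition is given as GI50. At the TGI there is no net growth.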

Columns and labels:
Experiment in all cases: inhibition of tumour cell growth, NCI panel, 48 h
SF-539 CNS = test system: SF-539 CNS
HCT-116 colon = test system: HCT-116 colon
HOP-92 NSCLC = test system: HOP-92 NSCLC
UACC-62 melanoma = test system: UACC-62 melanoma
EKVX NSCLC = test system: EKVX NSCLC
SR leukemia = test system: SR leukemia
HT29 colon = test system: HT29 colon
NCI/ADR-RES ovarian = test system: NCI/ADR-RES ovarian
HS 578T breast = test system: HS 578T breast
MDA-MB-231 breast = test system: MDA-MB-231 breast

## CS/C(=N\C(=S)N(C)C)N(c1ccccc1)c1nc(=[N+](C)C)ss1
SF-539 CNS
  TGI: 25.5 µM
HCT-116 colon
  TGI: 21.7 µM
HOP-92 NSCLC
  TGI: 51.2 µM
UACC-62 melanoma
  TGI: 19.2 µM
EKVX NSCLC
  TGI: 49.3 µM
SR leukemia
  TGI: 24.6 µM
HT29 colon
  TGI: 11.6 µM

## COc1ccc(C2CC(=O)c3c(O)cc(O)cc3O2)cc1O (stereo not given)
SF-539 CNS
  TGI: > 100 µM
HCT-116 colon
  TGI: > 100 µM
UACC-62 melanoma
  TGI: > 100 µM
EKVX NSCLC
  TGI: > 100 µM
HT29 colon
  TGI: > 100 µM

## CC(=O)N[C@@H](Cc1ccc(OP(=O)(O)O)cc1)C(=O)N[C@H]1CCC(=O)N2CCC[C@@H](C(=O)NCc3ccc(Cl)cc3)N2C1=O
SF-539 CNS
  GI50: > 25 µM
  TGI: > 25 µM
HCT-116 colon
  GI50: > 25 µM
  TGI: > 25 µM
UACC-62 melanoma
  GI50: > 25 µM
  TGI: > 25 µM
NCI/ADR-RES ovarian
  GI50: > 25 µM
  TGI: > 25 µM
SR leukemia
  GI50: > 25 µM
  TGI: > 25 µM
HS 578T breast
  GI50: > 25 µM
  TGI: > 25 µM
HT29 colon
  GI50: > 25 µM
  TGI: > 25 µM
MDA-MB-231 breast
  GI50: > 25 µM
  TGI: > 25 µM

## CN(C)c1ccc2c(=O)c3ccccc3oc2n1
HOP-92 NSCLC
  TGI: > 100 µM
UACC-62 melanoma
  TGI: > 100 µM
EKVX NSCLC
  TGI: > 100 µM

## COc1ccccc1NC(=O)c1sc2nc3c(cc2c1N)C(=O)CCC3
SF-539 CNS
  GI50: 3.97 µM
  TGI: > 100 µM
HCT-116 colon
  GI50: 6.29 µM
  TGI: > 100 µM
UACC-62 melanoma
  GI50: 3.99 µM
  TGI: > 100 µM
NCI/ADR-RES ovarian
  GI50: 7.14 µM
  TGI: > 100 µM
SR leukemia
  GI50: > 100 µM
  TGI: > 100 µM
HS 578T breast
  GI50: 6.77 µM
  TGI: > 100 µM
MDA-MB-231 breast
  GI50: 2.91 µM
  TGI: > 100 µM

## CCSCC1CC(O)(c2ccccc2)C(c2ccccc2)C(c2ccc(Cl)cc2)O1 (stereo not given)
SF-539 CNS
  GI50: 1.76 µM
  TGI: 3.56 µM
HCT-116 colon
  GI50: 1.21 µM
  TGI: 2.58 µM
UACC-62 melanoma
  GI50: 1.4 µM
  TGI: 3.01 µM
NCI/ADR-RES ovarian
  GI50: 1.97 µM
  TGI: 5.34 µM
EKVX NSCLC
  GI50: 1.38 µM
  TGI: 4.29 µM
SR leukemia
  GI50: 2.15 µM
  TGI: 5.99 µM
HS 578T breast
  GI50: 2.5 µM
  TGI: 8.87 µM
HT29 colon
  GI50: 1.09 µM
  TGI: 3.17 µM
MDA-MB-231 breast
  GI50: 1.82 µM
  TGI: 4.41 µM

## COc1ccccc1/C=C(\C#N)c1ccccc1
SF-539 CNS
  TGI: > 100 µM
HCT-116 colon
  TGI: > 100 µM
HOP-92 NSCLC
  TGI: > 100 µM
UACC-62 melanoma
  TGI: > 100 µM
SR leukemia
  TGI: 48.8 µM
HT29 colon
  TGI: > 100 µM

## CN1C(=O)CC(c2cccc(C3CC(=O)N(C)C3=O)n2)C1=O (stereo not given)
SF-539 CNS
  TGI: > 100 µM
HCT-116 colon
  TGI: > 100 µM
HOP-92 NSCLC
  TGI: > 100 µM
UACC-62 melanoma
  TGI: > 100 µM
EKVX NSCLC
  TGI: > 100 µM
SR leukemia
  TGI: > 100 µM
HT29 colon
  TGI: > 100 µM

## NC(=O)NNCc1ccccc1
SF-539 CNS
  TGI: > 100 µM
HCT-116 colon
  TGI: > 100 µM
HOP-92 NSCLC
  TGI: > 100 µM
UACC-62 melanoma
  TGI: > 100 µM
NCI/ADR-RES ovarian
  TGI: > 100 µM
EKVX NSCLC
  TGI: > 100 µM
HS 578T breast
  TGI: > 100 µM
HT29 colon
  TGI: > 100 µM
MDA-MB-231 breast
  TGI: > 100 µM

## COc1cc2c(cc1O)CC[C@@H]1[C@@H]2CC[C@]2(C)[C@@H](NCCN(C)C)CC[C@@H]12
SF-539 CNS
  GI50: 0.083 µM
  TGI: 0.264 µM
HCT-116 colon
  GI50: 0.139 µM
  TGI: 0.522 µM
HOP-92 NSCLC
  GI50: 0.124 µM
  TGI: 0.742 µM
UACC-62 melanoma
  GI50: 0.0994 µM
  TGI: 0.274 µM
EKVX NSCLC
  GI50: 0.341 µM
  TGI: 0.804 µM
SR leukemia
  GI50: 0.0989 µM
  TGI: 0.437 µM
HS 578T breast
  GI50: 0.277 µM
  TGI: 1.1 µM
HT29 colon
  GI50: 0.101 µM
  TGI: 0.393 µM
MDA-MB-231 breast
  GI50: 0.0979 µM
  TGI: 0.391 µM

## Cc1ccccc1NC(=O)C(=O)C(C#N)c1ccc(Cl)cc1 (stereo not given)
SF-539 CNS
  TGI: 83.5 µM
HCT-116 colon
  TGI: > 100 µM
HOP-92 NSCLC
  TGI: > 100 µM
UACC-62 melanoma
  TGI: > 100 µM
EKVX NSCLC
  TGI: > 100 µM
HT29 colon
  TGI: > 100 µM

## CCNC(=O)[C@@H]1CCCN2C(=O)CC[C@H](NC(=O)[C@H](Cc3ccc(OP(=O)(O)O)cc3)NC(C)=O)C(=O)N12
SF-539 CNS
  GI50: > 25 µM
  TGI: > 25 µM
HCT-116 colon
  GI50: > 25 µM
  TGI: > 25 µM
UACC-62 melanoma
  GI50: > 25 µM
  TGI: > 25 µM
NCI/ADR-RES ovarian
  GI50: > 25 µM
  TGI: > 25 µM
SR leukemia
  GI50: > 25 µM
  TGI: > 25 µM
HS 578T breast
  GI50: > 25 µM
  TGI: > 25 µM
HT29 colon
  GI50: > 25 µM
  TGI: > 25 µM
MDA-MB-231 breast
  GI50: > 25 µM
  TGI: > 25 µM

## COc1ccc(C(=O)c2cc(OC)c(OC)c(OC)c2)cc1
SF-539 CNS
  TGI: 1.28 µM
HCT-116 colon
  TGI: > 25.8 µM
HOP-92 NSCLC
  TGI: > 100 µM
UACC-62 melanoma
  TGI: > 9.77 µM
NCI/ADR-RES ovarian
  TGI: > 100 µM
EKVX NSCLC
  TGI: > 100 µM
SR leukemia
  TGI: 4.49 µM
HT29 colon
  TGI: > 100 µM
MDA-MB-231 breast
  TGI: > 100 µM

## CCOc1ccccc1NC(=O)CC1C(=O)Nc2ccccc2S1=O (stereo not given)
SF-539 CNS
  TGI: > 100 µM
HCT-116 colon
  TGI: > 100 µM
HOP-92 NSCLC
  TGI: > 100 µM
UACC-62 melanoma
  TGI: > 100 µM
EKVX NSCLC
  TGI: > 100 µM
SR leukemia
  TGI: > 100 µM
HT29 colon
  TGI: > 100 µM

## CCCCCCCCCCCCNC(C)=O
SF-539 CNS
  TGI: 29.9 µM
HCT-116 colon
  TGI: 37 µM
HOP-92 NSCLC
  TGI: 19.2 µM
UACC-62 melanoma
  TGI: 30.2 µM
NCI/ADR-RES ovarian
  TGI: 33.3 µM
EKVX NSCLC
  TGI: 25.6 µM
HS 578T breast
  TGI: 31.1 µM
HT29 colon
  TGI: 33.6 µM
MDA-MB-231 breast
  TGI: 28.6 µM

## O=C(O)C/C(=C\c1ccco1)C(=O)O
SF-539 CNS
  TGI: > 100 µM
HCT-116 colon
  TGI: > 100 µM
UACC-62 melanoma
  TGI: > 100 µM
NCI/ADR-RES ovarian
  TGI: > 100 µM
EKVX NSCLC
  TGI: > 100 µM
SR leukemia
  TGI: > 100 µM
HT29 colon
  TGI: > 100 µM
MDA-MB-231 breast
  TGI: > 100 µM

## O=C(Nc1ccccc1-c1n[nH]c(=S)[nH]c1=O)C(F)(F)F
SF-539 CNS
  TGI: > 100 µM
HCT-116 colon
  TGI: > 100 µM
HOP-92 NSCLC
  TGI: > 100 µM
UACC-62 melanoma
  TGI: > 100 µM
EKVX NSCLC
  TGI: > 100 µM
SR leukemia
  TGI: > 100 µM
HT29 colon
  TGI: > 100 µM

## Cc1ccc(S(=O)(=O)N[C@H](C(=O)O)c2ccccc2)cc1
SF-539 CNS
  TGI: > 100 µM
HOP-92 NSCLC
  TGI: > 100 µM
UACC-62 melanoma
  TGI: > 100 µM
EKVX NSCLC
  TGI: > 100 µM
HT29 colon
  TGI: > 100 µM

## Cc1cn(Cc2ccccc2CCO)c(=S)[nH]c1=O
SF-539 CNS
  TGI: > 100 µM
HOP-92 NSCLC
  TGI: > 100 µM
UACC-62 melanoma
  TGI: > 100 µM
EKVX NSCLC
  TGI: > 100 µM
HT29 colon
  TGI: > 100 µM

## CC(C)(C)OC1=C(OC(C)(C)C)C(O)(c2ccccc2)C1=O (stereo not given)
SF-539 CNS
  TGI: > 100 µM
UACC-62 melanoma
  TGI: > 100 µM
EKVX NSCLC
  TGI: > 100 µM
HT29 colon
  TGI: > 100 µM

## N#Cc1ccccc1NC(=O)/C(=N\N)C(C(=O)c1ccncc1)C1OC(=O)c2ccccc21 (stereo not given)
SF-539 CNS
  TGI: > 100 µM
HCT-116 colon
  TGI: > 100 µM
HOP-92 NSCLC
  TGI: > 100 µM
UACC-62 melanoma
  TGI: > 100 µM
EKVX NSCLC
  TGI: > 100 µM
SR leukemia
  TGI: > 100 µM
HT29 colon
  TGI: > 100 µM

## O=C(Nc1ccc(Cl)cc1Cl)C1C(=O)N(c2ccc(Cl)cc2Cl)C(=O)/C1=N\Nc1ccc([N+](=O)[O-])cc1[N+](=O)[O-] (stereo not given)
SF-539 CNS
  TGI: > 100 µM
HCT-116 colon
  TGI: > 100 µM
HOP-92 NSCLC
  TGI: 62.3 µM
UACC-62 melanoma
  TGI: > 100 µM
EKVX NSCLC
  TGI: > 100 µM
HT29 colon
  TGI: > 100 µM

## CC(C)/C=C1\CCC(CN2CCCC2)C1=O (stereo not given)
SF-539 CNS
  TGI: 35.6 µM
HCT-116 colon
  TGI: 20.9 µM
HOP-92 NSCLC
  TGI: 36.1 µM
UACC-62 melanoma
  TGI: 47.4 µM
EKVX NSCLC
  TGI: 40 µM
SR leukemia
  TGI: 8.09 µM
HT29 colon
  TGI: 25.6 µM

## O=C(Nc1c(O)[nH]c(=S)[nH]c1=O)c1ccccc1F
SF-539 CNS
  TGI: > 100 µM
HCT-116 colon
  TGI: > 100 µM
HOP-92 NSCLC
  TGI: > 100 µM
UACC-62 melanoma
  TGI: > 100 µM
SR leukemia
  TGI: > 100 µM
HT29 colon
  TGI: > 100 µM
